# Laboratory results reported in US11453669B2, “Polycyclic pyridone derivative” (Shionogi & Co., Ltd., priority 2018, dated 2022).
# Read-outs that look alike come from different tables or passages of the source.
# Experiments:
# [1] = system: HIV; experiment: Anti-HIV activity (MT-4 cells, MTT); format: cell-based; conditions: Human immunodeficiency virus 1, MT4, 96 h, read-out: EC50_nM (50% HIV inhibitory concentration)
# Protocol: Serial dilutions of a test sample were prepared in a 96-well microplate (50 μL/well). 2.5×10^5 cells/mL of an MT-4 cell suspension was dispensed at 100 μL/well to the plate containing the test sample. Then, an HIV virus solution was dispensed at 50 μL/well. The plate was mixed with a plate mixer and cultured for 4 days in a CO2 incubator. An MTT (3-(4,5-dimethylthiazol-2-yl)-2,5-diphenyltetrazolium bromide) solution was dispensed at 30 μL/well. The plate was reacted for 1 hour in a CO2 incubator. 150 μL of the supernatant was removed from each well so as not to take up the cells. 150 μL of a cell lysis solution was added to each well and well mixed with a plate mixer until the cells were completely lysed. The absorbance of the mixed plate was measured at two wavelengths of 560 nm and 690 nm using a microplate reader.
# [2] = system: HIV mutant strain 2 (E92Q/E138T/G140S/Q148H); format: cell-based; conditions: FC=EC50 of the mutant strain/EC50 of the wild strain, HeLa-CD4 cells
# Protocol: (§1) Serial dilutions of a test sample were prepared in a 96-well microplate (50 μL/well). 2.5×10^5 cells/mL of a HeLa-CD4 cell suspension was dispensed at 100 μL/well to the plate containing the test sample. Then, an HIV virus solution (wild strain and mutant strain) was dispensed at 50 μL/well. The plate was mixed with a plate mixer and cultured for 3 days in a CO2 incubator. The culture supernatant in each well was removed by suction. A cell lysis buffer in a reporter assay kit was dispensed at 100 μL/well, and the plate was frozen in a freezer (−80° C.). The plate frozen in a freezer was thawed at room temperature, then mixed with a plate mixer, and centrifuged at 1,200 rpm for 5 minutes. The supernatant of each well was dispensed at 20 μL/well to a 96-well microplate (BLACK). A chemiluminescent in the reporter assay kit reagent was dispensed at 100 μL/well and reacted at room temperature for approximately 1 hour. Then, luminescence intensity was measured using MicroBeta TRILUX.
# [3] = system: HIV mutant strain 1 (E138K/G140S/Q148H/N155H); format: cell-based; conditions: FC=EC50 of the mutant strain/EC50 of the wild strain, HeLa-CD4 cells
# Protocol: as §1
# [4] = format: in vitro ADME; conditions: human, 30 min, 0.5 μmol/L, pH 7.4
# Protocol: Using commercially available pooled human liver microsomes, a compound of the present invention was reacted for a constant time, and a remaining rate was calculated by comparing a reacted sample and an unreacted sample, thereby, a degree at which the compound of the present invention was metabolized in liver was assessed.
# A reaction was performed (oxidative reaction) at 37° C. for 0 minute or 30 minutes in the presence of 1 mmol/L NADPH in 0.2 mL of a buffer solution (50 mmol/L Tris-HCl pH 7.4, 150 mmol/L potassium chloride, 10 mmol/L magnesium chloride) containing 0.5 mg protein/mL of human liver microsomes. After the reaction, 50 μL of the reaction solution was added to 100 μL of a solution of methanol/acetonitrile=1/1 (v/v), and the mixture was mixed and centrifuged at 3000 rpm for 15 minutes. The compound of the present invention in the centrifugation supernatant was quantified by LC/MS/MS or solid-phase extraction (SPE)/MS. The amount of the compound of the present invention remaining after the reaction was calculated with the amount of the compound at 0 minutes of the reaction defined as 100%.
# [5] = MT-4 cells, cultured 4 days, MTT
Structure (SMILES),"EC50 [1, 5] [nM]",other results
CCN1C(=O)c2c(O)c(=O)c(-c3ncc(Cc4ccc(F)cc4F)s3)cn2N2CCCC[C@H]12 [Compound I-003],7.1,–
CCN1C(=O)c2c(O)c(=O)c(-c3nnc(Cc4cccc(Cl)c4F)s3)cn2N2CCCC[C@H]12 [Compound I-005],3.2,–
CCN1C(=O)c2c(O)c(=O)c(-c3nnc(Cc4cccc(Cl)c4F)s3)cn2N2CCCC[C@@H]12 [Compound I-006],2.7,–
CCN1C(=O)c2c(O)c(=O)c(-c3nnc(Cc4ccc(F)c(Cl)c4)s3)cn2N2CCCC[C@H]12 [Compound I-009],7.2,–
CCN1C(=O)c2c(O)c(=O)c(-c3nnc(Cc4ccc(F)c(Cl)c4)s3)cn2N2CCCC[C@@H]12 [Compound I-010],3.8,–
CCN1C(=O)c2c(O)c(=O)c(-c3cnn(Cc4ccc(F)cc4F)c3)cn2N2CCCC[C@H]12 [II-005],9.7,–
CCN1C(=O)c2c(O)c(=O)c(-c3cnn(Cc4cccc(Cl)c4F)c3)cn2N2CCCC[C@H]12 [II-007],14,–
CCN1C(=O)c2c(O)c(=O)c(-c3cnn(Cc4cccc(Cl)c4F)c3)cn2N2CCCC[C@@H]12 [II-008],4.5,–
CN1C(=O)c2c(O)c(=O)c(-c3nnc(Cc4ccc(F)cc4F)s3)cn2N2CCOC[C@H]12 [II-009],–,EC50 [1]: 1.3 nM
CN1C(=O)c2c(O)c(=O)c(-c3nnc(Cc4ccc(F)cc4F)s3)cn2N2CCOC[C@@H]12 [II-010],–,FC (fold change) for mutant strain 2 [2]: 22; FC (fold change) for mutant strain 1 [3]: 25; EC50 [1]: 1.3 nM; residual rate [4]: 106
CCN1C(=O)c2c(O)c(=O)c(-c3cnn(Cc4ncc(Cl)cc4F)c3)cn2N2CCCC[C@H]12 [II-014],61,–
CCN1C(=O)c2c(O)c(=O)c(-c3nnc(Cc4ccc(F)cc4)s3)cn2N2CCOC[C@H]12 [II-019],2.1,–
CCN1C(=O)c2c(O)c(=O)c(-c3nnc(Cc4ccc(F)cc4)s3)cn2N2CCOC[C@@H]12 [II-020],0.7,–
CCN1C(=O)c2c(O)c(=O)c(-c3nnc(Cc4c(F)cc(F)cc4F)s3)cn2N2C[C@@H](C)C[C@@H]12 [II-027],–,FC (fold change) for mutant strain 2 [2]: 7; FC (fold change) for mutant strain 1 [3]: 4.7; EC50 [1]: 1.9 nM; residual rate [4]: 90.5
C[C@@H]1CC[C@H]2N(C)C(=O)c3c(O)c(=O)c(-c4nnc(Cc5ccc(F)cc5F)s4)cn3N12 [II-029],–,FC (fold change) for mutant strain 2 [2]: 6.5; FC (fold change) for mutant strain 1 [3]: 7.2; EC50 [1]: 0.66 nM; residual rate [4]: 85.3
CN1C(=O)c2c(O)c(=O)c(-c3nnc(Cc4ccc(F)cc4F)s3)cn2N2Cc3ccccc3[C@H]12 [II-039],3.8,–
CN1C(=O)c2c(O)c(=O)c(-c3nnc(Cc4ccc(F)cc4F)s3)cn2N2Cc3ccccc3[C@@H]12 [II-040],1.3,–
C[C@@H]1CCC[C@H]2N(C)C(=O)c3c(O)c(=O)c(-c4nnc(Cc5ccc(F)cc5F)s4)cn3N12 [II-043],–,FC (fold change) for mutant strain 2 [2]: 11; FC (fold change) for mutant strain 1 [3]: 6.8; EC50 [1]: 3.5 nM; residual rate [4]: 103
CCN1C(=O)c2c(O)c(=O)c(-c3nnc(Cc4c(F)cc(F)cc4F)s3)cn2N2[C@H](C)CCC[C@@H]12 [II-044],–,FC (fold change) for mutant strain 2 [2]: 26; FC (fold change) for mutant strain 1 [3]: 11; EC50 [1]: 1.4 nM; residual rate [4]: 88.5
CCN1C(=O)c2c(O)c(=O)c(-c3nnc(Cc4ccc(F)cc4)s3)cn2N2C[C@H]3CC[C@H](O3)[C@H]12 [II-049],1.6,–

# Further lines, with some results ahead:
"EC50 [1, 5] [nM]",Structure (SMILES),other results
2.2,CCN1C(=O)c2c(O)c(=O)c(-c3nnc(Cc4c(F)cc(F)cc4F)s3)cn2N2CCCC[C@H]12 [Compound I-007],–
5,CCN1C(=O)c2c(O)c(=O)c(-c3nnc(Cc4cc(F)c(F)cc4F)s3)cn2N2CCCC[C@H]12 [Compound I-011],–
3,CCN1C(=O)c2c(O)c(=O)c(-c3nnc(Cc4ccc(F)c(F)c4F)s3)cn2N2CCCC[C@H]12 [Compound I-013],–
1.3,CCN1C(=O)c2c(O)c(=O)c(-c3nnc(Cc4ccc(F)c(F)c4F)s3)cn2N2CCCC[C@@H]12 [Compound I-014],–
4.3,CN1C(=O)c2c(O)c(=O)c(-c3nnc(Cc4cccc(Cl)c4F)s3)cn2N2CCCC[C@H]12 [II-001],–
1.6,CN1C(=O)c2c(O)c(=O)c(-c3nnc(Cc4cccc(Cl)c4F)s3)cn2N2CCCC[C@@H]12 [II-002],–
0.7,CN1C(=O)c2c(O)c(=O)c(-c3nnc(Cc4c(F)cc(F)cc4F)s3)cn2N2CCCC[C@@H]12 [II-004],–
0.5,CN1C(=O)c2c(O)c(=O)c(-c3nnc(Cc4c(F)cc(F)cc4F)s3)cn2N2CCOC[C@H]12 [II-011],–
0.25,CN1C(=O)c2c(O)c(=O)c(-c3nnc(Cc4c(F)cc(F)cc4F)s3)cn2N2CCOC[C@@H]12 [II-012],–
1.6,CCN1C(=O)c2c(O)c(=O)c(-c3nnc(Cc4ccc(F)cc4F)s3)cn2N2CCOC[C@H]12 [II-015],–
0.19,CCN1C(=O)c2c(O)c(=O)c(-c3nnc(Cc4ccc(F)cc4F)s3)cn2N2CCOC[C@@H]12 [II-016],–
1.1,CCN1C(=O)c2c(O)c(=O)c(-c3nnc(Cc4c(F)cc(F)cc4F)s3)cn2N2CCOC[C@H]12 [II-017],–
2.6,CCN1C(=O)c2c(O)c(=O)c(-c3nnc(Cc4ccc(F)cc4F)s3)cn2N2C[C@@H](C)C[C@H]12 [II-021],–
0.67,CCN1C(=O)c2c(O)c(=O)c(-c3nnc(Cc4ccc(F)cc4F)s3)cn2N2CC[C@H](C)[C@@H]12 [II-022],–
0.9,CCN1C(=O)c2c(O)c(=O)c(-c3nnc(Cc4c(F)cc(F)cc4F)s3)cn2N2C[C@@H](C)C[C@H]12 [II-025],–
0.39,CCN1C(=O)c2c(O)c(=O)c(-c3nnc(Cc4c(F)cc(F)cc4F)s3)cn2N2CC[C@H](C)[C@@H]12 [II-026],–
0.13,C[C@@H]1CC[C@@H]2N(C)C(=O)c3c(O)c(=O)c(-c4nnc(Cc5ccc(F)cc5F)s4)cn3N12 [II-028],–
1.4,C[C@@H]1CC[C@@H]2N(C)C(=O)c3c(O)c(=O)c(-c4nnc(Cc5c(F)cc(F)cc5F)s4)cn3N12 [II-030],–
0.13,C[C@@H]1CC[C@H]2N(C)C(=O)c3c(O)c(=O)c(-c4nnc(Cc5c(F)cc(F)cc5F)s4)cn3N12 [II-031],–
0.13,C[C@H]1CCN2[C@@H](C1)N(C)C(=O)c1c(O)c(=O)c(-c3nnc(Cc4ccc(F)cc4F)s3)cn12 [II-032],–
0.13,C[C@@H]1CCN2[C@@H](C1)N(C)C(=O)c1c(O)c(=O)c(-c3nnc(Cc4ccc(F)cc4F)s3)cn12 [II-034],–
0.28,CN1C(=O)c2c(O)c(=O)c(-c3nnc(Cc4c(F)cc(F)cc4F)s3)cn2N2C[C@@H]3CC[C@@H](O3)[C@@H]12 [II-035],–
2,CN1C(=O)c2c(O)c(=O)c(-c3nnc(Cc4c(F)cc(F)cc4F)s3)cn2N2C[C@H]3CC[C@H](O3)[C@H]12 [II-036],–
0.2,C[C@H]1CC[C@H]2N(C)C(=O)c3c(O)c(=O)c(-c4nnc(Cc5c(F)cc(F)cc5F)s4)cn3N2C1 [II-042],–
2,CCN1C(=O)c2c(O)c(=O)c(-c3nnc(Cc4c(F)cc(F)cc4F)s3)cn2N2C[C@H]3CC[C@H](O3)[C@H]12 [II-045],–
1.4,CCN1C(=O)c2c(O)c(=O)c(-c3nnc(Cc4ccc(F)cc4F)s3)cn2N2C[C@H]3CC[C@H](O3)[C@H]12 [II-047],–
1.3,CC(C)N1C(=O)c2c(O)c(=O)c(-c3nnc(Cc4c(F)cc(F)cc4F)s3)cn2N2C[C@H]3CC[C@H](O3)C12 (some centres unmarked) [II-053],–
1,CC(C)N1C(=O)c2c(O)c(=O)c(-c3nnc(Cc4ccc(F)cc4F)s3)cn2N2CC[C@@H](C)C[C@@H]12 [II-059],–
2.7,CC(C)N1C(=O)c2c(O)c(=O)c(-c3nnc(Cc4c(F)cc(F)cc4F)s3)cn2N2CC[C@@H](C)C[C@@H]12 [II-060],–
1.1,CCN1C(=O)c2c(O)c(=O)c(-c3nnc(Cc4ccc(F)cc4F)s3)cn2N2[C@H](C)CCC[C@@H]12 [II-066],–
